Results taken from PubChem BioAssay (NCI).
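Test compounds were applied to cells in 96-well plates for 48 hours at 5 doses. TGI marks complete inhibition of growth.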

What was measured:
Assay in all cases: NCI tumour cell line growth inhibition, 48 h
786-0 renal = tested on: 786-0 renal
A498 renal = tested on: A498 renal
A549 NSCLC = tested on: A549 NSCLC
ACHN renal = tested on: ACHN renal
BT-549 breast = tested on: BT-549 breast
CAKI-1 renal = tested on: CAKI-1 renal
CCRF-CEM leukemia = tested on: CCRF-CEM leukemia
COLO 205 colon = tested on: COLO 205 colon
DU-145 prostate = tested on: DU-145 prostate
EKVX NSCLC = tested on: EKVX NSCLC
HCC-2998 colon = tested on: HCC-2998 colon
HCT-116 colon = tested on: HCT-116 colon
HCT-15 colon = tested on: HCT-15 colon
HL-60(TB) leukemia = tested on: HL-60(TB) leukemia
HOP-62 NSCLC = tested on: HOP-62 NSCLC
HOP-92 NSCLC = tested on: HOP-92 NSCLC
HS 578T breast = tested on: HS 578T breast
HT29 colon = tested on: HT29 colon
IGROV1 ovarian = tested on: IGROV1 ovarian
K-562 leukemia = tested on: K-562 leukemia
KM12 colon = tested on: KM12 colon
LOX IMVI melanoma = tested on: LOX IMVI melanoma
M14 melanoma = tested on: M14 melanoma
MALME-3M melanoma = tested on: MALME-3M melanoma
MCF7 breast = tested on: MCF7 breast
MDA-N = tested on: MDA-N
MOLT-4 leukemia = tested on: MOLT-4 leukemia
NCI-H226 lung = tested on: NCI-H226 lung
NCI-H23 lung = tested on: NCI-H23 lung
NCI-H460 lung = tested on: NCI-H460 lung
NCI-H522 lung = tested on: NCI-H522 lung
NCI/ADR-RES ovarian = tested on: NCI/ADR-RES ovarian
OVCAR-3 ovarian = tested on: OVCAR-3 ovarian
OVCAR-4 ovarian = tested on: OVCAR-4 ovarian
OVCAR-5 ovarian = tested on: OVCAR-5 ovarian
OVCAR-8 ovarian = tested on: OVCAR-8 ovarian
PC-3 prostate = tested on: PC-3 prostate
RPMI-8226 leukemia = tested on: RPMI-8226 leukemia
RXF 393 renal = tested on: RXF 393 renal
SF-268 CNS = tested on: SF-268 CNS
SF-295 CNS = tested on: SF-295 CNS
SF-539 CNS = tested on: SF-539 CNS
SK-MEL-2 melanoma = tested on: SK-MEL-2 melanoma
SK-MEL-28 melanoma = tested on: SK-MEL-28 melanoma
SK-MEL-5 melanoma = tested on: SK-MEL-5 melanoma
SK-OV-3 ovarian = tested on: SK-OV-3 ovarian
SN12C renal = tested on: SN12C renal
SNB-19 CNS = tested on: SNB-19 CNS
SNB-75 CNS = tested on: SNB-75 CNS
SR leukemia = tested on: SR leukemia
SW-620 colon = tested on: SW-620 colon
T-47D breast = tested on: T-47D breast
TK-10 renal = tested on: TK-10 renal
U251 CNS = tested on: U251 CNS
UACC-257 melanoma = tested on: UACC-257 melanoma
UO-31 renal = tested on: UO-31 renal
MDA-MB-231 breast = tested on: MDA-MB-231 breast
MDA-MB-435 = tested on: MDA-MB-435
UACC-62 melanoma = tested on: UACC-62 melanoma

## Cc1cc(S(=O)(=O)Nc2nc(N)nc(N(C)C)n2)c(SC(C(=O)O)c2ccccc2)cc1Cl (stereo not drawn)
786-0 renal
  TGI: > 10 µM
A498 renal
  TGI: > 10 µM
A549 NSCLC
  TGI: > 10 µM
ACHN renal
  TGI: > 10 µM
BT-549 breast
  TGI: > 10 µM
CAKI-1 renal
  TGI: > 10 µM
CCRF-CEM leukemia
  TGI: > 10 µM
COLO 205 colon
  TGI: > 10 µM
DU-145 prostate
  TGI: > 10 µM
EKVX NSCLC
  TGI: > 10 µM
HCC-2998 colon
  TGI: > 10 µM
HCT-116 colon
  TGI: > 10 µM
HCT-15 colon
  TGI: > 10 µM
HL-60(TB) leukemia
  TGI: > 10 µM
HOP-62 NSCLC
  TGI: > 10 µM
HOP-92 NSCLC
  TGI: > 10 µM
HS 578T breast
  TGI: > 10 µM
HT29 colon
  TGI: > 10 µM
IGROV1 ovarian
  TGI: > 10 µM
K-562 leukemia
  TGI: > 10 µM
KM12 colon
  TGI: > 10 µM
LOX IMVI melanoma
  TGI: > 10 µM
M14 melanoma
  TGI: > 10 µM
MALME-3M melanoma
  TGI: > 10 µM
MCF7 breast
  TGI: > 10 µM
MDA-N
  TGI: > 10 µM
MOLT-4 leukemia
  TGI: > 10 µM
NCI-H226 lung
  TGI: > 10 µM
NCI-H23 lung
  TGI: > 10 µM
NCI-H460 lung
  TGI: > 10 µM
NCI-H522 lung
  TGI: > 10 µM
NCI/ADR-RES ovarian
  TGI: > 10 µM
OVCAR-3 ovarian
  TGI: > 10 µM
OVCAR-4 ovarian
  TGI: > 10 µM
OVCAR-5 ovarian
  TGI: > 10 µM
OVCAR-8 ovarian
  TGI: > 10 µM
PC-3 prostate
  TGI: > 10 µM
RPMI-8226 leukemia
  TGI: > 10 µM
RXF 393 renal
  TGI: > 10 µM
SF-268 CNS
  TGI: > 10 µM
SF-295 CNS
  TGI: > 10 µM
SF-539 CNS
  TGI: > 10 µM
SK-MEL-2 melanoma
  TGI: > 10 µM
SK-MEL-28 melanoma
  TGI: > 10 µM
SK-MEL-5 melanoma
  TGI: > 10 µM
SK-OV-3 ovarian
  TGI: > 10 µM
SN12C renal
  TGI: > 10 µM
SNB-19 CNS
  TGI: > 10 µM
SNB-75 CNS
  TGI: > 10 µM
SR leukemia
  TGI: > 10 µM
SW-620 colon
  TGI: > 10 µM
T-47D breast
  TGI: > 10 µM
TK-10 renal
  TGI: > 10 µM
U251 CNS
  TGI: > 10 µM
UACC-257 melanoma
  TGI: > 10 µM
UO-31 renal
  TGI: > 10 µM

## Cc1cn(C2CC(N=[N+]=[N-])C(CO)O2)c(=O)n(CCCCO)c1=O (stereo not drawn)
786-0 renal
  TGI: > 100 µM
A498 renal
  TGI: > 100 µM
A549 NSCLC
  TGI: > 100 µM
ACHN renal
  TGI: > 100 µM
BT-549 breast
  TGI: > 100 µM
CAKI-1 renal
  TGI: > 100 µM
CCRF-CEM leukemia
  TGI: > 100 µM
COLO 205 colon
  TGI: > 100 µM
DU-145 prostate
  TGI: > 100 µM
EKVX NSCLC
  TGI: > 100 µM
HCC-2998 colon
  TGI: > 100 µM
HCT-116 colon
  TGI: > 100 µM
HCT-15 colon
  TGI: > 100 µM
HL-60(TB) leukemia
  TGI: > 100 µM
HOP-62 NSCLC
  TGI: > 100 µM
HOP-92 NSCLC
  TGI: > 100 µM
HS 578T breast
  TGI: > 100 µM
HT29 colon
  TGI: > 100 µM
IGROV1 ovarian
  TGI: > 100 µM
K-562 leukemia
  TGI: > 100 µM
KM12 colon
  TGI: > 100 µM
LOX IMVI melanoma
  TGI: > 100 µM
M14 melanoma
  TGI: > 100 µM
MALME-3M melanoma
  TGI: > 100 µM
MCF7 breast
  TGI: > 100 µM
MDA-MB-231 breast
  TGI: > 100 µM
MDA-MB-435
  TGI: > 100 µM
MDA-N
  TGI: > 100 µM
MOLT-4 leukemia
  TGI: > 100 µM
NCI-H226 lung
  TGI: > 100 µM
NCI-H23 lung
  TGI: > 100 µM
NCI-H460 lung
  TGI: > 100 µM
NCI-H522 lung
  TGI: > 100 µM
NCI/ADR-RES ovarian
  TGI: > 100 µM
OVCAR-3 ovarian
  TGI: > 100 µM
OVCAR-4 ovarian
  TGI: > 100 µM
OVCAR-5 ovarian
  TGI: > 100 µM
OVCAR-8 ovarian
  TGI: > 100 µM
PC-3 prostate
  TGI: > 100 µM
RPMI-8226 leukemia
  TGI: > 100 µM
RXF 393 renal
  TGI: > 100 µM
SF-268 CNS
  TGI: > 100 µM
SF-295 CNS
  TGI: > 100 µM
SF-539 CNS
  TGI: > 100 µM
SK-MEL-2 melanoma
  TGI: > 100 µM
SK-MEL-28 melanoma
  TGI: > 100 µM
SK-OV-3 ovarian
  TGI: > 100 µM
SN12C renal
  TGI: > 100 µM
SNB-19 CNS
  TGI: > 100 µM
SNB-75 CNS
  TGI: > 100 µM
SW-620 colon
  TGI: > 100 µM
T-47D breast
  TGI: > 100 µM
TK-10 renal
  TGI: > 100 µM
U251 CNS
  TGI: > 100 µM
UACC-257 melanoma
  TGI: > 100 µM
UACC-62 melanoma
  TGI: > 100 µM
UO-31 renal
  TGI: > 100 µM
